Laboratory results from patent publication EP1157985A1 (G.D. SEARLE & CO., priority 1996, dated 1997).
Structures can show the parent of a compound that is named as a salt. Where two headings read alike, the source gives them in different places.

Assays:
[1] = molecular target: T1, Human vitronectin receptor (αvβ3) (Homo sapiens, UniProt P05106+P06756); assay: Vitronectin adhesion assay (solid phase receptor assay, competition with biotinylated vitronectin); type: binding
T1 construct: Human vitronectin receptor (αvβ3) was purified from human placenta; from tissue; host or cells: human placenta
Protocol: VITRONECTIN ADHESION ASSAY
Human vitronectin receptor (αvβ3) was purified from human placenta as previously described [Pytela et al., Methods in Enzymology, 144:475-489 (1987)]. Human vitronectin was purified from fresh frozen plasma as previously described [Yatohgo et al., Cell Structure and Function, 13:281-292 (1988)]. Biotinylated human vitronectin was prepared by coupling NHS-biotin from Pierce Chemical Company (Rockford, IL) to purified vitronectin as previously described [Charo et al., J. Biol. Chem., 266(3):1415-1421 (1991)]. Assay buffer, OPD substrate tablets, and RIA grade BSA were obtained from Sigma (St. Louis, MO). Anti-biotin antibody was obtained from Calbiochem (La Jolla, CA). Linbro microtiter plates were obtained from Flow Labs (McLean, VA). ADP reagent was obtained from Sigma (St. Louis, MO).
This assay was essentially the same as previously reported [Niiya et al., Blood, 70:475-483 (1987)]. The purified human vitronectin receptor (αvβ3) was diluted from stock solutions to 1.0 µg/mL in Tris-buffered saline containing 1.0 mM Ca^++, Mg^++, and Mn^++, pH 7.4 (TBS^+++). The diluted receptor was immediately transferred to Linbro microtiter plates at 100 µL/well (100 ng receptor/well). The plates were sealed and incubated overnight at 4°C to allow the receptor to bind to the wells. All remaining steps were at room temperature. The assay plates were emptied and 200 µL of 1% RIA grade BSA in TBS^+++ (TBS^+++/BSA) were added to block exposed plastic surfaces. Following a 2 hour incubation, the assay plates were washed with TBS^+++ using a 96 well plate washer. Logarithmic serial dilution of the test compound and controls were made starting at a stock concentration of 2 mM and using 2 nM biotinylated vitronectin in TBS^+++/BSA as the diluent. This premixing of labeled ligand with test (or control) ligand, and subsequent transfer of 50 µL aliquots to the assay plate was carried out with a CETUS Propette robot; the final concentration of the labeled ligand was 1 nM and the highest concentration of test compound was 1.0 x 10^-4 M. The competition occurred for two hours after which all wells were washed with a plate washer as before. Affinity purified horseradish peroxidase labeled goat anti-biotin antibody was diluted 1:3000 in TBS^+++/BSA and 125 µL were added to each well. After 30 minutes, the plates were washed and incubated with OPD/H2O2 substrate in 100 mM/L Citrate buffer, pH 5.0. The plate was read with a microtiter plate reader at a wavelength of 450 nm and when the maximum-binding control wells reached an absorbance of about 1.0, the final A450 were recorded for analysis. The data were analyzed using a macro written for use with the EXCEL™ spreadsheet program. The mean, standard deviation, and %CV were determined for duplicate concentrations. The mean A450 values were normalized to the mean of four maximum-binding controls (no competitor added)(B-MAX). The normalized values were subjected to a four parameter curve fit algorithm [Rodbard et al., Int.

[2] = molecular target: T2, Human fibrinogen receptor (αIIbβ3) (Homo sapiens, UniProt P05106+P08514); assay: Purified IIb/IIIa receptor assay (solid phase receptor assay, competition with biotinylated vitronectin); type: binding; settings: purified receptor from outdated platelets; 1 nM biotinylated vitronectin; highest concentration tested 1.0 x 10^-4 M
T2 construct: Human fibrinogen receptor (αIIbβ3) was purified from outdated platelets; from tissue; host or cells: outdated (human) platelets
Excerpt: PURIFIED IIb/IIIa RECEPTOR ASSAY
Human fibrinogen receptor (αIIbβ3) was purified from outdated platelets. (Pytela, R., Pierschbacher, M.D., Argraves, S., Suzuki, S., and Rouslahti, E. "Arginine-Glycine-Aspartic acid adhesion receptors", Methods in Enzymology 144(1987):475-489.) Human vitronectin was purified from fresh frozen plasma as described in Yatohgo, T., Izumi, M., Kashiwagi, H., and Hayashi, M., "Novel purification of vitronectin from human plasma by heparin affinity chromatography," Cell Structure and Function 13(1988):281-292. Biotinylated human vitronectin was prepared by coupling NHS-biotin from Pierce Chemical Company (Rockford, IL) to purified vitronectin as previously described. (Charo, I.F., Nannizzi, L., Phillips, D.R., Hsu, M.A., Scarborough, R.M., "Inhibition of fibrinogen binding to GP IIb/IIIa by a GP IIIa peptide", J. Biol. Chem. 266(3)(1991): 1415-1421.) Assay buffer, OPD substrate tablets, and RIA grade BSA were obtained from Sigma (St. Louis, MO). Anti-biotin antibody was obtained from Calbiochem (La Jolla, CA). Linbro microtiter plates were obtained from Flow Labs (McLean, VA). ADP reagent was obtained from Sigma (St. Louis, MO).
This assay is essentially the same reported in Niiya, K., Hodson, E., Bader, R., Byers-Ward, V. Koziol, J.A., Plow, E.F. and Ruggeri, Z.M., "Increased surface expression of the membrane glycoprotein IIb/IIIa complex induced by platelet activation: Relationships to the binding of fibrinogen and platelet aggregation", Blood 70(1987):475-483. The purified human fibrinogen receptor (αIIbβ3) was diluted from stock solutions to 1.0 µg/mL in Tris-buffered saline containing 1.0 mM Ca^++, Mg^++, and Mn^++, pH 7.4 (TBS^+++). The diluted receptor was immediately transferred to Linbro microtiter plates at 100 µL/well (100 ng receptor/well). The plates were sealed and incubated overnight at 4°C to allow the receptor to bind to the wells. All remaining steps were at room temperature. The assay plates were emptied and 200 µL of 1% RIA grade BSA in TBS^+++ (TBS^+++/BSA) were added to block exposed plastic surfaces. Following a 2 hour incubation, the assay plates were washed with TBS^+++ using a 96 well plate washer. Logarithmic serial dilution of the test compound and controls were made starting at a stock concentration of 2 mM and using 2 nM biotinylated vitronectin in TBS^+++/BSA as the diluent. This premixing of labeled ligand with test (or control) ligand, and subsequent transfer of 50 µL aliquots to the assay plate was carried out with a CETUS Propette robot; the final concentration of the labeled ligand was 1 nM and the highest concentration of test compound was 1.0 x 10^-4 M. The competition occurred for two hours after which all wells were washed with a plate washer as before. Affinity purified horseradish peroxidase labeled goat anti-biotin antibody was diluted 1:3000 in TBS^+++/BSA and 125 µL were added to each well. After 30 minutes, the plates were washed and incubated with […] substrate in 100 mM/L citrate buffer, pH 5.0. The plate was read with a microtiter plate reader at a wavelength of 450 nm and when the maximum-binding control wells reached an absorbance of about 1.0, the final A450 were recorded for analysis. The data were analyzed using a macro written for use with the EXCEL™ spreadsheet program. The mean, standard deviation, and %CV were determined for duplicate concentrations. The mean A450 values were normalized to the mean of four maximum-binding controls (no competitor added)(B-MAX). The normalized values were subjected to a four parameter curve fit algorithm, [Robard et al., Int. […]

[3] = purified receptor from human placenta; 1 nM biotinylated vitronectin; highest concentration tested 1.0 x 10^-4 M; read-out: AvB3 IC50

Row | SMILES | IC50 [1, 3] [nM] | IC50 [2] [nM] | IC50 ([1]; read-out: AvB3 IC50; purified receptor from human placenta; 1 nM biotinylated vitronectin; highest concentration tested 1.0 x 10^-4 M) [nM]
1 | CCCCS(=O)(=O)NC(Cc1ccc(NC(=O)c2cccc(NC(=N)N)c2)cc1)C(=O)O (stereo not drawn) [Example 52, trifluoroacetate salt] | 0.33 | 1.88 | 
2 | CC(C)(C)OC(=O)NC(Cc1ccc(NC(=O)c2cccc(N=C(N)N)c2)cc1)C(=O)O (stereo not drawn) [Example 55, 4-[[[3-[(aminoiminomethyl)amino]phenyl]carbonyl]amino]-N-[(1,1-dimethylethoxy)carbonyl]-phenylalanine, monohydrate trifluoroacetate salt] | 0.51 | 14.3 | 
3 | CC(C)(C)OC(=O)N[C@@H](Cc1ccc(NC(=O)c2cccc(NC(=N)N)c2)cc1)C(=O)O [Example 56, trifluoroacetate salt] | 0.43 | 6.35 | 
4 | CC(C)(C)OC(=O)N[C@H](Cc1ccc(NC(=O)c2cccc(NC(=N)N)c2)cc1)C(=O)O [Example 57, 4-[[[3-[(aminoiminomethyl)amino]phenyl]carbonyl]amino]-N-[(1,1-dimethylethoxy)carbonyl]-D-phenylalanine, monohydrate trifluoroacetate salt] | 14.5 | 318 | 
5 | CC(C)(C)OC(=O)CCc1ccc(CCNC(=O)c2cccc(NC(=N)N)c2)cc1 [Example 58, monohydrate trifluoroacetate salt] |  | 57200 | 48400
6 | N=C(N)Nc1cccc(C(=O)NCCc2ccc(CCC(=O)O)cc2)c1 [Example 59, 4-[2-[[[3-[(aminoiminomethyl)amino]phenyl]carbonyl]amino]ethyl]benzenepropanoic acid, trifluoroacetate salt] | 4480 | 478 | 
7 | CCOC(=O)CCc1ccc(N(C)C(=O)c2cccc(NC(=N)N)c2)cc1 [Example 60, ethyl 4-[[[3-[(aminoiminomethyl)amino]phenyl]carbonyl]methylamino]benzenepropanoate, trifluoroacetate salt] | 3370 | 3810 | 
8 | CN(C(=O)c1cccc(NC(=N)N)c1)c1ccc(CCC(=O)O)cc1 [Example 61, 4-[[[3-[(aminoiminomethyl)amino]phenyl]carbonyl]methylamino]benzenepropanoic acid, monohydrate trifluoroacetate salt] | 470 | 666 | 
9 | N=C(N)Nc1cccc(S(=O)(=O)Nc2ccc(CCC(=O)O)cc2)c1 [Example 62, 4-[[[3-[(aminoiminomethyl)amino]phenyl]sulfonyl]amino]benzenepropanoic acid, trifluoroacetate salt] | 28100 | 14800 | 
10 | NC(N)=Nc1cccc(C(=O)Nc2ccc(CCC(=O)O)cc2)c1 [Example 64, 4-[[[3-[(aminoiminomethyl)amino]phenyl]carbonyl]amino]benzenepropanoic acid, hydrochloride] | 21.2 | 93.1 | 
11 | N=C(N)Nc1cccc(C(=O)Nc2ccc(CC(N)C(=O)O)cc2)c1 (stereo not drawn) [Example 65, 4-[[[3-[(aminoiminomethyl)amino]phenyl]carbonyl]amino]phenylalanine, trifluoroacetate salt] | 4760 | 21900 | 
12 | CC(=O)NC(Cc1ccc(NC(=O)Nc2cccc(NC(=N)N)c2)cc1)C(=O)O (stereo not drawn) [Example 68, N-acetyl-4-[[[[3-[(aminoiminomethyl)amino]phenyl]amino]carbonyl]amino]phenylalanine, trifluoroacetate salt] | 782 | 103 | 
13 | CCOC(=O)C(CC(=O)O)c1ccc(NC(=O)c2cccc(NC(=N)N)c2)cc1 (stereo not drawn) [Example 71, 1-ethyl hydrogen[4-[[[3-[(aminoiminomethyl)amino]phenyl]carbonyl]amino]-phenyl]butanedioate, trifluoroacetate salt] | 38.7 | 8.3 | 
14 | CC(C)OC(=O)NC(Cc1ccc(NC(=O)c2cccc(NC3=NC(=O)CN3)c2)cc1)C(=O)O (stereo not drawn) [Example 77, 4-[[[3-[(4,5-dihydro-4-oxo-lH-imidazol-2-yl)amino]phenyl]carbonyl]amino]-N-[(1-methylethoxy)-carbonyl]phenylalanine] | 1.6 | 1260 | 
15 | N#CN=C(NCc1ccccc1)Nc1cccc(C(=O)Nc2ccc(CCC(=O)O)cc2)c1 [Example 79, 4-[[[3-[[(cyanoimino)[(phenylmethyl)-amino]methyl]amino]phenyl]carbonyl]amino]-benzenepropanoic acid] | 2290 | 10200 | 
16 | CCOC(=O)CS(=O)(=O)c1ccc(NC(=O)c2cccc(NC(=N)N)c2)cc1 [Example 80, ethyl [[4-[[[3-[(aminoiminomethyl)amino]phenyl]carbonyl]amino]phenyl]sulfonyl]acetate, monohydrate trifluoroacetate salt] | 44200 | 19800 | 
17 | N=C(N)Nc1cccc(C(=O)Nc2ccc(SCC(=O)O)cc2)c1 [Example 82, [[4-[[[3-[(aminoiminomethyl)amino]phenyl]carbonyl]amino]phenyl]thio]acetic acid, trifluoroacetate] | 264 | 332 | 
18 | N=C(N)Nc1cccc(NC(=O)Cc2ccc(OCC(=O)O)cc2)c1 [Example 84, [4-[2-[[3-[(aminoiminomethyl)amino]phenyl]amino]-2-oxoethyl]phenoxy]acetic acid, trifluoroacetate salt] | 16300 | 486 | 
